Assay results published in PMC9097471, “Development of Selective Phosphatidylinositol 5-Phosphate 4-Kinase γ Inhibitors with a Non-ATP-competitive, Allosteric Binding Mode” (Journal of Medicinal Chemistry, 2022).

Key:
PI5P4Kγ-WT = biological target: T1, PI5P4Kγ-WT (Homo sapiens, UniProt Q8TBX8); test: Thermal shift assay; conditions: read-out: ΔTm PI5P4Kγ WT, thermal shift, compound 63 μM
T1 sequence (Q8TBX8 1-421): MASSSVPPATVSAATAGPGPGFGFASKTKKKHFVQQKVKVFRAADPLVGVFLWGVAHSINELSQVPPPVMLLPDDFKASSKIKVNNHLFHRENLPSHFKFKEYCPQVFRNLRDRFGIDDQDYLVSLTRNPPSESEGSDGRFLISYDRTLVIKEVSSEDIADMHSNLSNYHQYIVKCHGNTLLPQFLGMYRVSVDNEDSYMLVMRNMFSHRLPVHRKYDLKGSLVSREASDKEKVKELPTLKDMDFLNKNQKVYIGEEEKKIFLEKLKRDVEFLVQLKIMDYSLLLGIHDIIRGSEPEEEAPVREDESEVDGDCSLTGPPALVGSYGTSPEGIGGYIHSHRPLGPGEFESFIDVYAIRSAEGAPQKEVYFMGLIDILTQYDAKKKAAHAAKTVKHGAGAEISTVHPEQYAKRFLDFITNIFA

ERK1 = ERK1 (Homo sapiens, UniProt P27361); test: Kinase panel, radiometric 33P filter binding; conditions: read-out: % activity remaining
ERK1, sequence (P27361 whole entry): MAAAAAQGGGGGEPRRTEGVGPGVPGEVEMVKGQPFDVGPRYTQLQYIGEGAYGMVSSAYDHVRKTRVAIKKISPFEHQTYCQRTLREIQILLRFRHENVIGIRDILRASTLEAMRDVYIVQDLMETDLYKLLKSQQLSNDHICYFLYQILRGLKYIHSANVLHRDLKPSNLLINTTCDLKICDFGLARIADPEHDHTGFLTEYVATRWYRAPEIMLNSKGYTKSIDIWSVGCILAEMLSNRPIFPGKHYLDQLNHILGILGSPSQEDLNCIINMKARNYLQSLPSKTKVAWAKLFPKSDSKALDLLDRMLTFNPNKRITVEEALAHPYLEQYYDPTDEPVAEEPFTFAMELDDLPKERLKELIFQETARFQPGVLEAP

p38a MAPK = p38a MAPK (Homo sapiens, UniProt Q16539); test: Kinase panel, radiometric 33P filter binding; conditions: read-out: % activity remaining
p38a MAPK, sequence (Q16539 whole entry): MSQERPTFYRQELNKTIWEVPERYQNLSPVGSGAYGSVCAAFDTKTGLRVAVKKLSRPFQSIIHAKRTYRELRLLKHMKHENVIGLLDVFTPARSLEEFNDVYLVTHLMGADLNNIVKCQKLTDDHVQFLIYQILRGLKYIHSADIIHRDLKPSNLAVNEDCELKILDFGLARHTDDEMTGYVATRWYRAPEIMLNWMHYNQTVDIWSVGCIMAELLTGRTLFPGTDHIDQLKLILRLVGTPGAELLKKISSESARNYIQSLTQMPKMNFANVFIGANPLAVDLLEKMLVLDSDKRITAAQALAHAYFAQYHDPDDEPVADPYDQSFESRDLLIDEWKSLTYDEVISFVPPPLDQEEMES
Source text: (§1) filter binding assay using 33P-g-ATPat the MRC PPU International Centre for Kinase Profiling, University of

p38d MAPK = p38d MAPK (Homo sapiens, UniProt O15264); test: Kinase panel, radiometric 33P filter binding; conditions: read-out: % activity remaining
p38d MAPK, sequence (O15264 whole entry): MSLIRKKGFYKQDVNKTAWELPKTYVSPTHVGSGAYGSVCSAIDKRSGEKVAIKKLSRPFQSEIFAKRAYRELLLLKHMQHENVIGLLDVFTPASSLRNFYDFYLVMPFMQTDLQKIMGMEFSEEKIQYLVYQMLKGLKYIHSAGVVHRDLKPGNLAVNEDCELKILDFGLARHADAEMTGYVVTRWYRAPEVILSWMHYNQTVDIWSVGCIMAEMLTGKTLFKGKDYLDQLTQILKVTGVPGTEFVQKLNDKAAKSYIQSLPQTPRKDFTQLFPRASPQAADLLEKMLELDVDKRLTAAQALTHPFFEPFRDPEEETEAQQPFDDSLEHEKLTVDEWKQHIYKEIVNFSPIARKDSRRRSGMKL
Source text: as §1

ERK8 = ERK8 (Homo sapiens, UniProt Q8TD08); test: Kinase panel, radiometric 33P filter binding; conditions: read-out: % activity remaining
ERK8, sequence (Q8TD08 whole entry): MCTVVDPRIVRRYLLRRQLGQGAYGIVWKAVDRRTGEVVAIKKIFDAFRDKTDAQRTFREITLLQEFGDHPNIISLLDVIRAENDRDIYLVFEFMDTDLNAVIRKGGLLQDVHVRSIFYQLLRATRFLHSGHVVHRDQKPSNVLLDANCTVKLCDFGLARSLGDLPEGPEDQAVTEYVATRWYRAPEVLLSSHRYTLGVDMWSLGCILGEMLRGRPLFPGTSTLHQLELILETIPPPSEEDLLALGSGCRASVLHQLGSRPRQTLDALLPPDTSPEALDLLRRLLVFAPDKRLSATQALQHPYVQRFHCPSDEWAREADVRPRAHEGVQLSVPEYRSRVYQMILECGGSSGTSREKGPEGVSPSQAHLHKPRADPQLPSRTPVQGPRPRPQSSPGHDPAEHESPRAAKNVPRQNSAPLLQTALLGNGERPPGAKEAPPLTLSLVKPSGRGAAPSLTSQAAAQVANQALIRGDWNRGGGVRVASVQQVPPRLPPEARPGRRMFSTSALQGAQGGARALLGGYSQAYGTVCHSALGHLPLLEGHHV
Source text: as §1

RSK1 = RSK1 (Homo sapiens, UniProt Q15418); test: Kinase panel, radiometric 33P filter binding; conditions: read-out: % activity remaining
RSK1, sequence (Q15418 whole entry): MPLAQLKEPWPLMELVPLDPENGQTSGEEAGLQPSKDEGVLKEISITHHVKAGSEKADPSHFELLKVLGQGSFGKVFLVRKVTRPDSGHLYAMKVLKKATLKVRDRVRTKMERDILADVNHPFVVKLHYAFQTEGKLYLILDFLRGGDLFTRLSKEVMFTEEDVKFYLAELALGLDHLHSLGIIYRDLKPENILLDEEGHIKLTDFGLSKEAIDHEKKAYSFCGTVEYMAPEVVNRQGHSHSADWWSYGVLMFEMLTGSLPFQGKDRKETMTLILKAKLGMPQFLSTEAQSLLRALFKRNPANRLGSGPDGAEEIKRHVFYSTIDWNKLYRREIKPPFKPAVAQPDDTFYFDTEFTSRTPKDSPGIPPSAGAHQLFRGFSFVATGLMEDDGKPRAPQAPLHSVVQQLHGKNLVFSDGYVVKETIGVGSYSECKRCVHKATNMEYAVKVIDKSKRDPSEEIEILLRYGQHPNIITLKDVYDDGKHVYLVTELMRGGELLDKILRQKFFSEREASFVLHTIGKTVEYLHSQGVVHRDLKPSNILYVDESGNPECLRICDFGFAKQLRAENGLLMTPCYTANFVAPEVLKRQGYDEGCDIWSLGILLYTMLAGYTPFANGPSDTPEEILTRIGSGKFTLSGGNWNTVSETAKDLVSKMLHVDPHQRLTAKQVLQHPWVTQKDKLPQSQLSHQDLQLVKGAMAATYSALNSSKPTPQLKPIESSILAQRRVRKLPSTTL
Source text: as §1

S6K1 = S6K1 (Homo sapiens, UniProt P23443); test: Kinase panel, radiometric 33P filter binding; conditions: read-out: % activity remaining
Source text: as §1

MSK1 = MSK1 (Homo sapiens, UniProt O75582); test: Kinase panel, radiometric 33P filter binding; conditions: read-out: % activity remaining
MSK1, sequence (O75582 whole entry): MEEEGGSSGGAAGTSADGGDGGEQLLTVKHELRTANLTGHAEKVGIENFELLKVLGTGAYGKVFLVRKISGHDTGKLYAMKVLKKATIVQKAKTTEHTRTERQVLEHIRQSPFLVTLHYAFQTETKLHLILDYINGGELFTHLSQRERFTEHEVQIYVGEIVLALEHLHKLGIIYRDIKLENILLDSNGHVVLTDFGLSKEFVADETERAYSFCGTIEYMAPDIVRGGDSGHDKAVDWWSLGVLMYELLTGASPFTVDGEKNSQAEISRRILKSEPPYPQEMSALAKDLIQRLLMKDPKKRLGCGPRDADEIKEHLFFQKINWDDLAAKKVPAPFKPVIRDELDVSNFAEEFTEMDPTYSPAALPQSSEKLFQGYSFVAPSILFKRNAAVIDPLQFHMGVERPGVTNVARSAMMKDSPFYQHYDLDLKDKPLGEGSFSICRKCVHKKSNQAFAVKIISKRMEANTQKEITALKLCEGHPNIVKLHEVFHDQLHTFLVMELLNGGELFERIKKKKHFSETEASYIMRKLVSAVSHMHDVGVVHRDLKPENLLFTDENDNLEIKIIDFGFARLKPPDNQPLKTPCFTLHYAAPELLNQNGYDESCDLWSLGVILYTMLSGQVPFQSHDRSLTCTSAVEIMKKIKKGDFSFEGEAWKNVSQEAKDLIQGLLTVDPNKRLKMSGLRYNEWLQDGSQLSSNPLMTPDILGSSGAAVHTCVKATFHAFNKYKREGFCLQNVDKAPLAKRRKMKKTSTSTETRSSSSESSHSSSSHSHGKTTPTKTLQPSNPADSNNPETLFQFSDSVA

PLK1 = PLK1 (Homo sapiens, UniProt P53350); test: Kinase panel, radiometric 33P filter binding; conditions: read-out: % activity remaining
Source text: as §1

Aurora A = Aurora A (Homo sapiens, UniProt O14965); test: Kinase panel, radiometric 33P filter binding; conditions: read-out: % activity remaining
Aurora A, sequence (O14965 whole entry): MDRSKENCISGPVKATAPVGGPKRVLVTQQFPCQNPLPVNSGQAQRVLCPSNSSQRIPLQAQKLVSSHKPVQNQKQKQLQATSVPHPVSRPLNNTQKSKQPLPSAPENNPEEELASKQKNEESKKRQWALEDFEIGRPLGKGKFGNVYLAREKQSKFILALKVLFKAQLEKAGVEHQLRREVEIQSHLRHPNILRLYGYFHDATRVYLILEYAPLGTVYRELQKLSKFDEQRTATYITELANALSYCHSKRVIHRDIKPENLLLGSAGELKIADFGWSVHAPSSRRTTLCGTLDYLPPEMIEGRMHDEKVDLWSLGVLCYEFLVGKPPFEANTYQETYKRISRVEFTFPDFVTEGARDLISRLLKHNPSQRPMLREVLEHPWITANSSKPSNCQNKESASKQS
Source text: as §1

MARK2 = MARK2 (Homo sapiens, UniProt Q7KZI7); test: Kinase panel, radiometric 33P filter binding; conditions: read-out: % activity remaining
Source text: as §1

BRSK1 = BRSK1 (Homo sapiens, UniProt Q8TDC3); test: Kinase panel, radiometric 33P filter binding; conditions: read-out: % activity remaining
Source text: as §1

CK2 = CK2 (Homo sapiens, UniProt P68400); test: Kinase panel, radiometric 33P filter binding; conditions: read-out: % activity remaining
CK2, sequence (P68400 whole entry): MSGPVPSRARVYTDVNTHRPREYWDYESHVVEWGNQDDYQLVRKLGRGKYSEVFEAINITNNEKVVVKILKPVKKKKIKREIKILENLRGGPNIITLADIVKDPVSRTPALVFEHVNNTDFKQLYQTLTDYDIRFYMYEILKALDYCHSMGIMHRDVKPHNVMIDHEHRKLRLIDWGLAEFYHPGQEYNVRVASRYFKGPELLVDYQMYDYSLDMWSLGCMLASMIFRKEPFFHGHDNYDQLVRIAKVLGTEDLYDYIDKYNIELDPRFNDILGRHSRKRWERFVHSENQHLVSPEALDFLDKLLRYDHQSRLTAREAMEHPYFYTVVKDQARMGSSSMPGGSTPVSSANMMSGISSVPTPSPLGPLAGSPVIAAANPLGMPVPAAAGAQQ
Source text: as §1

DYRK2 = DYRK2 (Homo sapiens, UniProt Q92630); test: Kinase panel, radiometric 33P filter binding; conditions: read-out: % activity remaining
Source text: as §1

PIM3 = PIM3 (Homo sapiens, UniProt Q86V86); test: Kinase panel, radiometric 33P filter binding; conditions: read-out: % activity remaining
Source text: as §1

EF2K = EF2K (Homo sapiens, UniProt O00418); test: Kinase panel, radiometric 33P filter binding; conditions: read-out: % activity remaining
Source text: as §1

GCK = GCK (Homo sapiens, UniProt Q12851); test: Kinase panel, radiometric 33P filter binding; conditions: read-out: % activity remaining
Source text: as §1

IRAK4 = IRAK4 (Homo sapiens, UniProt Q9NWZ3); test: Kinase panel, radiometric 33P filter binding; conditions: read-out: % activity remaining
WNK1 = WNK1 (Homo sapiens, UniProt Q9H4A3); test: Kinase panel, radiometric 33P filter binding; conditions: read-out: % activity remaining
Source text: as §1

ULK2 = ULK2 (Homo sapiens, UniProt Q8IYT8); test: Kinase panel, radiometric 33P filter binding; conditions: read-out: % activity remaining
Source text: as §1

EPH-A2 = EPH-A2 (Homo sapiens, UniProt P29317); test: Kinase panel, radiometric 33P filter binding; conditions: read-out: % activity remaining
Source text: as §1

EPH-B1 = EPH-B1 (Homo sapiens, UniProt P54762); test: Kinase panel, radiometric 33P filter binding; conditions: read-out: % activity remaining
Source text: as §1

EPH-B2 = EPH-B2 (Homo sapiens, UniProt P29323); test: Kinase panel, radiometric 33P filter binding; conditions: read-out: % activity remaining
Source text: as §1

PDGFRA = PDGFRA (Homo sapiens, UniProt P16234); test: Kinase panel, radiometric 33P filter binding; conditions: read-out: % activity remaining
Source text: as §1
Kinase % activity remaining s.d.

PI5P4Kβ = biological target: T2, PI5P4Kβ (Homo sapiens, UniProt P78356); set-up: method as in ref 30 (a number printed in a supplementary file, which may have a reference list of its own: not looked up in the article's list); conditions: 32P-ATP/PI5P incorporation, showed 'small but significant stimulation'; cited from earlier work
T2 sequence (P78356 1-416): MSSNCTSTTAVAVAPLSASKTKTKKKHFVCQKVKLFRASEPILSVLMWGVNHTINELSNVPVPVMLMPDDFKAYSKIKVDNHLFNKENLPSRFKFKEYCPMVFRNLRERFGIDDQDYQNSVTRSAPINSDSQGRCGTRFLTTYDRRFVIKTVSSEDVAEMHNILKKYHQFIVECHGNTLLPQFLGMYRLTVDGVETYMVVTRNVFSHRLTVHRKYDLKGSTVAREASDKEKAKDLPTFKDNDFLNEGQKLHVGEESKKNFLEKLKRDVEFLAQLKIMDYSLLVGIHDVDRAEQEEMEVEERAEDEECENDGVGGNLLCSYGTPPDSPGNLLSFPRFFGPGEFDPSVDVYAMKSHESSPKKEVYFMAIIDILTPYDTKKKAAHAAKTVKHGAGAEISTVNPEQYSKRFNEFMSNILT

PI5P4Kγ+ = PI5P4Kγ+ (Homo sapiens, UniProt Q8TBX8, D138G/D197E/E133P/E135D/E153T/E196G/G136S/G139A/N195G/S132L/S134N); test: Thermal shift assay; conditions: read-out: ΔTm PI5P4Kγ+
PI5P4Kγ+, sequence (Q8TBX8 with tags, fused parts or gaps with the stated changes): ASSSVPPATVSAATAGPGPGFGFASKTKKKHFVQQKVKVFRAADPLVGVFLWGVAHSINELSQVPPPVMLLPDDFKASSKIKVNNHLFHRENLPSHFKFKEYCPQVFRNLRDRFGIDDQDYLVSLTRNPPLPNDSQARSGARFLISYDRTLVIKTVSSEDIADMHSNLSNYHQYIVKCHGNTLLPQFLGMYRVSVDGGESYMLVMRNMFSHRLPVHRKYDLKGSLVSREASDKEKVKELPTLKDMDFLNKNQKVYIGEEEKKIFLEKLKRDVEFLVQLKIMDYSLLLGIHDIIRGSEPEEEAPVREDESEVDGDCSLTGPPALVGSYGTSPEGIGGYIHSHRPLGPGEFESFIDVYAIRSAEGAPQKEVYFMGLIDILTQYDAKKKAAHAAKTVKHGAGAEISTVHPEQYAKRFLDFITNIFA

CC(C)c1ccccc1-c1nc(NCc2ccccn2)c2c(ccn2C)n1 [Compound 40] showed a ΔTm at 63 µM (PI5P4Kγ-WT) of 6.9 °C, a remaining activity at 10 µM (ERK1) of 111% and a remaining activity at 10 µM (p38a MAPK) of 100%. For the same compound, the remaining activity at 10 µM (p38d MAPK) was 117%, the remaining activity at 10 µM (ERK8) was 109% and the remaining activity at 10 µM (RSK1) was 99%. It also gave a remaining activity at 10 µM (S6K1) of 95%, a remaining activity at 10 µM (MSK1) of 95% and a remaining activity at 10 µM (PLK1) of 97%. The remaining activity at 10 µM (Aurora A) was 94%, the remaining activity at 10 µM (MARK2) was 101% and the remaining activity at 10 µM (BRSK1) was 115%. It also gave a remaining activity at 10 µM (CK2) of 90%, a remaining activity at 10 µM (DYRK2) of 106% and a remaining activity at 10 µM (PIM3) of 87%. The remaining activity at 10 µM (EF2K) was 98%, the remaining activity at 10 µM (GCK) was 93% and the remaining activity at 10 µM (IRAK4) was 114%. It also gave a remaining activity at 10 µM (WNK1) of 112%, a remaining activity at 10 µM (ULK2) of 91% and a remaining activity at 10 µM (EPH-A2) of 104%. The remaining activity at 10 µM (EPH-B1) was 95%, the remaining activity at 10 µM (EPH-B2) was 78% and the remaining activity at 10 µM (PDGFRA) was 100%.

In the case of FC(F)(F)c1ccccc1-c1nc(NCc2cccs2)c2ccccc2n1 [Compound 1, NIH-12848, reference compound], the IC50 (PI5P4Kβ) is listed as greater than 100 µM, the ΔTm at 63 µM (PI5P4Kγ-WT) is listed as 4.7 °C and the ΔTm at 63 µM (PI5P4Kγ+) is listed as 7.4 ± 0.6 °C.
